Test results from publication PMC10726451, “MAIP: An Open-Source Tool to Enrich High-Throughput Screening Output and Identify Novel, Druglike Molecules with Antimalarial Activity” (ACS Medicinal Chemistry Letters, 2023).
In brackets after ≈: the same amount, converted by molar mass. Read-outs that look alike come from different tables or passages of the source.

Key:
P. falciparum 3D7 [1] = tested on: P. falciparum 3D7; design: method as in ChEMBL (version 32), ref 29; settings: ref ChEMBL (version 32), cited from earlier work
[2] = LogD at pH 7.4, miniaturised shake flask; format: physicochemical
Procedure: The LogD pH7.4 assay was performed using a miniaturised shake flask method. A solution of a pre-saturated mixture of 1-octanol and PBS (1:1, v/v) and the test compound (75 µM) was incubated at 25 °C with constant shaking (850 rpm) for 2 hours. After incubation the organic and aqueous phases were separated, and samples of each phase transferred to plate for dilution. The organic phase was diluted to 1000-fold and the aqueous phase was diluted 20-fold. The samples were quantitated using LC-MS/MS. The experiment was carried out in duplicate. Propranolol, amitriptyline and midazolam were used as reference standards. […]

in vitro = format: cell-based; settings: human
Procedure: Here, this state of the art screening platform was applied to CQL (Figure 3). During solubilization and reformatting activities, 40 samples were identified with solubility issues and removed from the screening set, thereby leaving 5810 compounds (4623 scored + 1187 randomly selected). A primary screen was conducted at a single concentration (2 μM) against P. falciparum NF54 (nanoGlo readout over 72 h incubation). […] These compounds were then tested in five-point dose–response curve (DRC) assays, each of which provides key information to decide which compound(s) to progress (highlighted in blue). Five different assays were carried out, including three parasite growth assays over 72 h of incubation (P. falciparum NF54 in both nanoGlo and pLDH read-outs and P. falciparum Dd2 in pLDH read-out), one parasite growth assay over 12 h of incubation (P. falciparum NF54 in nanoGlo read-out) in order to evaluate the speed of action, and a cytotoxicity assay against human HepG2 cells over 72 h of incubation. Out of 36 screening active compounds (36 + 0) fulfilling all of the ideal criteria, 12 were deemed attractive in terms of chemical novelty and diversity for further progression and evaluation. This set of compounds was further complemented with others that passed at least three of the five DRC criteria, together with assessments of chemical novelty and diversity, which led to 33 selected compounds. Twenty-two compounds (those still available from commercial suppliers) were repurchased, and the compound efficacy was retested against P. falciparum 3D7 (pLDH readout over 72 h incubation) and human HepG2 cells over 72 h of incubation at a different testing center. […]
(§1) The Medicines for Malaria Venture (MMV)’s P. falciparum asexual blood stage phenotypic screening platform was used to experimentally validate the selected compounds. Full details can be found in a recent publication.5 Briefly, the HTS cascade relies on a newly developed P. falciparum strain genetically modified to express a nano-luciferase reporter gene driven by the ef1α promoter. In addition to providing similar results compared to a fluorescence-based assay, this reporter provided a robust read-out for parasite replication with incubation times as short […]
(§2) The screening platform consists of a primary screening where the compounds were tested at a single concentration (2 μM) against the chloroquine and pyrimethamine sensitive P. falciparum strain NF54 using a nanoGlo detection reagent. Compounds that exceeded a Z-score threshold of -4 were screened a second time in this assay format in addition to an orthogonal assay (P. falciparum NF54, pLDH). Only the compounds inhibiting parasite growth by more than 30% were then tested in five dose-response curve (DRC) assays. These assays were designed to evaluate different aspects any future antimalarial drug has to fulfil: - sensitivity (P. falciparum NF54, nanoGlo and P. falciparum NF54, pLDH); - efficacy against resistant parasite strains (P. falciparum Dd2, pLDH); - low cellular toxicity (HepG2 cells). In addition, to evaluate their speed of action, […]
versus 72 hours for the assays previously mentioned. […]
Compounds still commercially available for re-stock were purchased and retested in a different laboratory against P. falciparum 3D7 with a pLDF read-out, […]
(§3) and in human HepG2 cells. […]
(§4) in the parasite growth inhibition assay, and higher than 10 μM in the cell viability assay obtained in two distinct locations. […]

[3] = Metabolic stability in human liver microsomes; format: in vitro ADME; settings: 1 µM compound, 0.5 mg/mL pooled human liver microsomes
Procedure: Metabolic stability study using human liver microsomes
A solution of the test compounds in phosphate buffer solution (1 µM) was incubated in pooled human liver microsomes (0.5 mg/mL) for 0, 5, 20, 30, 45 and 60 minutes at 37 °C in the presence and absence of NADPH regeneration system. The reaction was terminated with the addition of ice-cold acetonitrile containing system suitability standard at designated time points. The sample was centrifuged (4200 rpm) for 20 minutes at 20 °C and the supernatant was half diluted in water and then analysed by means of LC-MS/MS. Compound clearance (CLint,app) was […]
calculated using standard methodology. The experiment was carried out in duplicate.
Verapamil, diltiazem, phenacetin and imipramine were used as reference standards. […]

[4] = Solubility in PBS pH 7.4, miniaturised shake flask; format: physicochemical; settings: kinetic from dmso stock, 25 °C
Procedure: Solubility in phosphate buffered saline (PBS) pH7.4
The solubility assay was performed using a miniaturised shake flask method. A solution of phosphate buffered saline (PBS) and the test compound (200 µM) was incubated at 25 °C with constant shaking (600 rpm) for 2 hours. The samples were filtered using a multiscreen solubility filter plate. The filtrate was half diluted in acetonitrile. A five-point linearity curve was prepared in PBS:Acetonitrile (1:1, v/v) at 200, 150, 75, 25 and 2.5 µM. Blank, linearity and test samples (n = 2) were transferred to a UV readable plate and the plate was scanned for absorbance. Best […]
fit calibration curves were constructed using the calibration standards and used to determine the test sample solubility. The experiment was carried out in duplicate. Diethylstilbestrol, haloperidol and sodium diclofenac were used as reference standards. […]

P. falciparum 3D7 [5] = assay: P. falciparum 3D7 parasite growth, pLDH readout, 72 h incubation; format: cell-based; settings: Plasmodium falciparum, P. falciparum 3D7, pLDH readout, read-out: 3D7 LDH (72 h) IC50
Procedure: Afterwards, the remaining compounds were evaluated for their attractiveness derived from the chemical diversity relative to existing antimalarial drugs (Table S2 / Supplementary file SMILES-Table S2.xls) and calculated using Tanimoto similarity based on 2D molecular fingerprints. At this stage the list of remaining compounds was expanded with additional compounds that fulfilled at least 3 of the DRC assays criteria. Compounds still commercially available for re-stock were purchased and retested in a different laboratory against P. falciparum 3D7 with a pLDF read-out, […]
as §3, §4

[6] = Metabolic stability in cryopreserved rat hepatocytes; format: in vitro ADME
Procedure: Metabolic stability using cryopreserved rat hepatocytes
A solution of the test compound in Krebs-Henseleit buffer solution (1 µM) was incubated in […]
CO2, 95% relative humidity). The reaction was terminated with the addition of ice-cold acetonitrile containing system suitability standard at designated time points. The sample was centrifuged (4200 rpm) for 20 minutes at 20 °C and the supernatant was half diluted in water and then analysed by means of LC-MS/MS. Compound clearance (CLint,app) was calculated using standard methodology. The experiment was carried out in duplicate. Diltiazem, 7-ethoxy coumarin, propranolol and midazolam were used as reference standards. […]

P. falciparum Dd2 = P. falciparum Dd2 parasite growth, pLDH readout, 72 h incubation; format: cell-based; settings: Plasmodium falciparum, read-out: Dd2 LDH (72 h) IC50
Procedure: Here, this state of the art screening platform was applied to CQL (Figure 3). During solubilization and reformatting activities, 40 samples were identified with solubility issues and removed from the screening set, thereby leaving 5810 compounds (4623 scored + 1187 randomly selected). A primary screen was conducted at a single concentration (2 μM) against P. falciparum NF54 (nanoGlo readout over 72 h incubation). […] These compounds were then tested in five-point dose–response curve (DRC) assays, each of which provides key information to decide which compound(s) to progress (highlighted in blue). Five different assays were carried out, including three parasite growth assays over 72 h of incubation (P. falciparum NF54 in both nanoGlo and pLDH read-outs and P. falciparum Dd2 in pLDH read-out), one parasite growth assay over 12 h of incubation (P. falciparum NF54 in nanoGlo read-out) in order to evaluate the speed of action, and a cytotoxicity assay against human HepG2 cells over 72 h of incubation. Out of 36 screening active compounds (36 + 0) fulfilling all of the ideal criteria, 12 were deemed attractive in terms of chemical novelty and diversity for further progression and evaluation. This set of compounds was further complemented with others that passed at least three of the five DRC criteria, together with assessments of chemical novelty and diversity, which led to 33 selected compounds. Twenty-two compounds (those still available from commercial suppliers) were repurchased, and the compound efficacy was retested against P. falciparum 3D7 (pLDH readout over 72 h incubation) and human HepG2 cells over 72 h of incubation at a different testing center.
No unexpected or unusually high safety hazards were encountered.
as §1, §2

[7] = read-out: Antimalarial activity: XC50
[8] = 1-octanol/PBS (1:1, v/v), pre-saturated, 1-octanol/PBS, pH 7.4, 25 °C, read-out: LogD pH 7.4
[9] = phosphate buffered saline, aqueous buffer, PBS pH 7.4, test compound 200 µM, 2 hours, read-out: kinetic solubility
[10] = pooled cryopreserved rat hepatocytes, 1 µM compound, pooled rat hepatocytes 1×10^6 cells/mL, read-out: rat hepatocytes CLint
[11] = phosphate buffered saline, aqueous buffer, PBS pH 7.4, test compound 200 µM, 2 hours

| SMILES | IC50 (P. falciparum 3D7 [1]; [7]) [µM] | IC50 (P. falciparum 3D7 [1]; read-out: Antimalarial activity: inhibition) [µM] | logD at 2 h, 75 µM [2, 8] | IC50 at 72 h (in vitro) [µM] | microsomal CLint at 1 h, 1 µM [3] [µL/min/mg] | solubility kinetic at 2 h [4, 9] [µM] | IC50 (P. falciparum 3D7 [5]) [µM] | hepatocyte CLint at 1.5 h, 1 µM [6, 10] [µL/min/1e6 cells] | IC50 (P. falciparum Dd2; DD2, 72 h) [µM] | logD at 2 h, 75 µM ([2]; pH 7.4) | solubility kinetic at 2 h ([4]; pH 7.4, aqueous buffer) [µM] | hepatocyte CLint at 1.5 h, 1 µM ([6]; rat, hepatocytes) [µL/min/1e6 cells] | IC50 (P. falciparum Dd2; P. falciparum Dd2 (drug-resistant), pLDH readout, 72 h) [µM] | solubility kinetic at 2 h, 200 µM [4, 11] [µM] | logD ([2]; 1-octanol/PBS (1:1, v/v), pre-saturated, 1-octanol/PBS, pH 7.4, 25 °C) |
| --- | --- | --- | --- | --- | --- | --- | --- | --- | --- | --- | --- | --- | --- | --- | --- |
| COc1c(C2CCN(CCN3CCC(CNC(=O)c4ccc(-c5ccc(C#N)cc5)cc4)CC3)CC2)ccc2c1CCCC2 [CHEMBL528171] | 0.445 | – | – | – | – | – | – | – | – | – | – | – | – | – | – |
| CC1CCN(Cc2cccc(C(=O)NCc3ccc(F)c(-c4ccc(CN5CCN[C@H](C)C5)cc4)c3)c2)CC1 [CHEMBL580242] | 1.46 | – | – | – | – | – | – | – | – | – | – | – | – | – | – |
| Oc1cc(CN2CCC(O)(Cn3ccnc3)CC2)nc2c(Cl)cccc12 [CHEMBL3476473] | – | 0.882 | – | – | – | – | – | – | – | – | – | – | – | – | – |
| CN1CCC(Oc2ccc(NC(=O)c3cn4ccnc4s3)cn2)CC1 [MMV1797331] | – | – | 1 | 21.6 | 3.7 | ≥ 200 | 1.9 | 1.9 | 2 | – | – | – | – | – | – |
| c1ccc(-c2ccnc(C3CCN(CC45CNCC4C5)CC3)n2)cc1 (centres unmarked) [MMV1797658] | – | – | 0.5 | 22.1 | 3.5 | ≥ 200 | 0.78 | 7.2 | 1.5 | – | – | – | – | – | – |
| CN1CCN(CCCCNC2CC3CCC(C2)N3Cc2ccccc2)CC1 (centres unmarked) [MMV1797951] | – | – | – | 13.8 | 8.3 | – | 1 | – | – | -0.2 | ≥ 200 | 1.4 | 0.98 | – | – |
| CC1(N2CCC2)CCC(NCC2CCN(Cc3ccccc3)C2)CC1 (centres unmarked) [MMV1798925] | – | – | 0.3 | 19.1 | 3.5 | – | 1.1 | 7.2 | 1.5 | – | – | – | – | 173 (≈ 59.1 µg/mL) | – |
| O=C(NC1CCN(CCOc2ccc(Cl)cc2)CC1)c1c[nH]c2ccncc2c1=O [MMV1798946] | – | – | – | > 25 | 14 | – | 0.75 | 2 | 2 | – | – | – | – | 170 (≈ 72.6 µg/mL) | 2.9 |
| COc1ccc(-c2cncc(C(=O)NCC3CCN(CCN(C)C)CC3)c2)cc1 [MMV1799348] | – | – | 1.2 | > 25 | 3.5 | – | 1.1 | 1.2 | 2.7 | – | – | – | – | 198 (≈ 78.5 µg/mL) | – |
| Cc1c(CN2CCC(O)(Cn3ccnc3)CC2)[nH]c2c(Cl)cccc12 [MMV1801316] | – | – | 2.8 | > 25 | 24.1 | – | 1.5 | 2.7 | 3.6 | – | – | – | – | 86 (≈ 30.9 µg/mL) | – |
| Cc1cnccc1N1CCCN(Cc2ccccc2OCCN2CCN(C)CC2)CC1 [MMV1802771] | – | – | 1 | 20 | 11 | – | 0.81 | 2.6 | 1.1 | – | – | – | – | 100 (≈ 42.4 µg/mL) | – |
